Results as given in patent US20150018546A1, “HETEROCYCLIC COMPOUND HAVING ANTI-HIV ACTIVITY” (TOYAMA CHEMICAL CO., LTD., priority 2012, published 2015).
Where two headings read alike, the source gives them in different places.

Test system: HIV-1 (JRCSF)
Experiment: Anti-HIV activity in MaRBLE cells infected with HIV-1 (JRCSF), luciferase readout
Format: cell-based
Settings: Human immunodeficiency virus 1, 168 h, read-out: Anti-HIV activity IC50
Description: This test was conducted with reference to Journal of Clinical Microbiology, 2007, Vol. 45, p. 477-487.
The anti-HIV activity was evaluated using MaRBLE cells in which a luciferase gene to be expressed under the control of HIV-1 LTR and a CCR5 gene, etc. were introduced in human T lymphocyte-derived HPB-M(a).
A fresh medium or each appropriately diluted test compound was dispensed to 96-well plates to prepare drug solution-containing plates.
The MaRBLE cells were suspended in RPMI1640 containing 10% FCS (fetal calf serum) and penicillin/streptomycin and infected with HIV-1 (JRCSF). Then, the cells were inoculated to the drug solution-containing plates (1×10^5 cells/well). The same number of uninfected cells were inoculated as a control group to the drug solution-containing plates.
After culture at 37° C. for 7 days in a 5% CO2 atmosphere, the intracellular luciferase activity was measured using Steady-Glo Luciferase assay system (Promega Corp.).
The rate of viral proliferation was determined according to the following expression:
Rate of viral proliferation(%)=(A/B)×100
A=(Firefly luciferase activity of the compound-supplemented well)−(Firefly luciferase activity of the uninfected cells)
B=(Firefly luciferase activity of the compound-free well)−(Firefly luciferase activity of the uninfected cells)
IC50 of the compound was calculated by a plot with concentration as the logarithm and the rate of viral proliferation as the real part using the FORECAST function (linear regression method) of Microsoft Office Excel 2003.

[1] = MaRBLE cells (human T lymphocyte-derived HPB-M(a)) infected with HIV-1 (JRCSF), 7 days culture, rate of viral proliferation by luciferase activity

Structure (SMILES)	IC50 [1] [nM]	IC50 [nM]
O=C(NCc1ccccc1)c1cc2c(NCc3ccccc3)ncnc2n(O)c1=O [Example 70, N-benzyl-4-(benzylamino)-8-hydroxy-7-oxo-7,8-dihydropyrido[2,3-d]pyrimidine-6-carboxamide]	790	–
CNc1cccc(CNc2cc(=O)n(O)c3ncnc(C)c23)c1 [Example 84, 8-hydroxy-4-methyl-5-((3-(methylamino)benzyl)amino)pyrido[2,3-d]pyrimidin-7(8H)-one]	–	76
O=c1cc(NCCc2ccccc2)c2cncnc2n1O [Example 17, 8-hydroxy-5-((2-phenylethyl)amino)pyrido[2,3-d]pyrimidin-7(8H)-one]	690	–
O=c1cc(NCC2CCCCC2)c2cncnc2n1O [Example 4, 5-((cyclohexylmethyl)amino)-8-hydroxypyrido[2,3-d]pyrimidin-7(8H)-one]	410	–
CC(Nc1cc(=O)n(O)c2ncncc12)c1ccccc1 (stereo not drawn) [Example 7, 8-hydroxy-5-((1-phenylethyl)amino)pyrido[2,3-d]pyrimidin-7(8H)-one]	170	–
O=C(NCc1ccccc1)c1c(O)c2c(NCc3ccccc3)ncnc2n(O)c1=O [Example 78, N-benzyl-4-(benzylamino)-5,8-dihydroxy-7-oxo-7,8-dihydropyrido[2,3-d]pyrimidine-6-carboxamide]	300	–
O=c1cc(Nc2ccccc2)c2cncnc2n1O [Example 16, 5-anilino-8-hydroxypyrido[2,3-d]pyrimidin-7(8H)-one]	280	–
Cc1ncnc2c1c(NC(c1ccccc1)c1ccccc1)cc(=O)n2O [Example 59, 5-((diphenylmethyl)amino)-8-hydroxy-4-methylpyrido[2,3-d]pyrimidin-7(81-1)-one]	160	–
Cc1ncnc2c1c(O)cc(=O)n2O [Example 21, 5,8-dihydroxy-4-methylpyrido[2,3-d]pyrimidin-7(8H)-one]	880	–
Cc1ncnc2c1c(NCC1CCCCC1)cc(=O)n2O [Example 35, 5-((cyclohexylmethyl)amino)-8-hydroxy-4-methylpyrido[2,3-d]pyrimidin-7(8H)-one]	68	–
O=c1cc(NC2CCCCC2)c2cncnc2n1O [Example 8, 5-(cyclohexylamino)-8-hydroxypyrido[2,3-d]pyrimidin-7(8H)-one]	220	–
O=C(NCc1ccccc1)c1c(O)c2cncnc2n(O)c1=O [Example 105, N-benzyl-5,8-dihydroxy-7-oxo-7,8-dihydropyrido[2,3-d]pyrimidine-6-carboxamide]	64	–
O=c1cc(O)c2c(NCc3ccccc3)ncnc2n1O [Example 79, 4-(benzylamino)-5,8-dihydroxypyrido[2,3-d]pyrimidine-7(8H)-one]	820	–
O=c1cc(NCc2ccc(F)cc2F)c2cncnc2n1O [Example 6, 5-((2,4-difluorobenzyl)amino)-8-hydroxypyrido[2,3-d]pyrimidin-7(8H)-one]	180	–

Second part, led by results:

IC50 [1] [nM]	Structure (SMILES)	IC50 [nM]
180	Cc1ncnc2c1c(NCCCc1cccnc1)cc(=O)n2O [Example 161, 8-hydroxy-4-methyl-5-((3-(pyridin-3-yl)propyl)amino)pyrido[2,3-d]pyrimidin-7(8H)-one]	–
81	Cc1ncnc2c1c(Nc1ccccc1)cc(=O)n2O [Example 87, 5-anilino-8-hydroxy-4-methylpyrido[2,3-d]pyrimidin-7(8H)-one]	–
62	CCN(CC)c1ccc(CNc2cc(=O)n(O)c3ncnc(C)c23)cc1 [Example 39, 5-((4-(diethylamino)benzyl)amino)-8-hydroxy-4-methylpyrido[2,3-d]pyrimidin-7(8H)-one]	–
48	Cc1ncnc2c1c(NCc1ccc(N(C)C)nc1)cc(=O)n2O [Example 40, 5-(((6-(dimethylamino)pyridin-3-yl)methyl)amino)-8-hydroxy-4-methylpyrido[2,3-d]pyrimidin-7(8H)-one]	–
48	Cc1ncnc2c1c(NCc1cccnc1N(C)C)cc(=O)n2O [Example 41, 5-(((2-(dimethylamino)pyridin-3-yl)methyl)amino)-8-hydroxy-4-methylpyrido[2,3-d]pyrimidin-7(8H)-one]	–
73	Cc1ncnc2c1c(NCc1ccc(O)c(O)c1)cc(=O)n2O [Example 113, 5-((3,4-dihydroxybenzyl)amino)-8-hydroxy-4-methylpyrido[2,3-d]pyrimidin-7(8H)-one]	–
130	Cc1ncnc2c1c(NCc1ccco1)cc(=O)n2O [Example 153, 5-((2-furylmethyl)amino)-8-hydroxy-4-methylpyrido[2,3-d]pyrimidin-7(8H)-one]	–
82	Cc1cccc(CNc2cc(=O)n(O)c3ncnc(C)c23)c1 [Example 137, 8-hydroxy-4-methyl-5-((3-methylbenzyl)amino)pyrido[2,3-d]pyrimidin-7(8H)-one]	–
45	Cc1ncnc2c1c(NCc1ccc3[nH]ccc3c1)cc(=O)n2O [Example 93, 8-hydroxy-5-(((1H-indol-5-yl)methyl)amino)-4-methylpyrido[2,3-d]pyrimidin-7(8H)-one]	–
310	Cc1ncnc2c1c(NCCc1cccnc1)cc(=O)n2O [Example 85, 8-hydroxy-4-methyl-5-((2-(pyridin-3-yl)ethyl)amino)pyrido[2,3-d]pyrimidin-7(8H)-one]	–
150	Cc1ncnc2c1c(NCc1ccccc1-c1cccnc1)cc(=O)n2O [Example 72, 8-hydroxy-4-methyl-5-((2-(pyridin-3-yl)benzyl)amino)pyrido[2,3-d]pyrimidin-7(8H)-one]	–
120	Cc1ncnc2c1c(NCc1cccc(CN(C)C)c1)cc(=O)n2O [Example 143, 5-((3-((dimethylamino)methyl)benzyl)amino)-8-hydroxy-4-methylpyrido[2,3-d]pyrimidin-7(8H)-one]	–
50	Cc1ncnc2c1c(NCc1cccc(N(C)C)c1)cc(=O)n2O [Example 29, 5-((3-(dimethylamino)benzyl)amino)-8-hydroxy-4-methylpyrido[2,3-d]pyrimidin-7(8H)-one]	–
83	Cc1ncnc2c1c(NCc1cccnc1OCC(F)(F)F)cc(=O)n2O [Example 147, 8-hydroxy-4-methyl-5-(((2-(2,2,2-trifluoroethoxy)pyridin-3-yl)methyl)amino)pyrido[2,3-d]pyrimidin-7(8H)-one]	–
29	Cc1ncnc2c1c(NCc1ccc(Cl)cc1)cc(=O)n2O [Example 44, 5-((4-chlorobenzyl)amino)-8-hydroxy-4-methylpyrido[2,3-d]pyrimidin-7(8H)-one]	–
39	Cc1ccc(CNc2cc(=O)n(O)c3ncnc(C)c23)cc1 [Example 43, 8-hydroxy-4-methyl-5-((4-methylbenzyl)amino)pyrido[2,3-d]pyrimidin-7(8H)-one]	–
53	COc1ccccc1CNc1cc(=O)n(O)c2ncnc(C)c12 [Example 33, 8-hydroxy-5-((2-methoxybenzyl)amino)-4-methylpyrido[2,3-d]pyrimidin-7(8H)-one]	–
26	Cc1ncnc2c1c(NCc1ccccc1C(F)(F)F)cc(=O)n2O [Example 149, 8-hydroxy-4-methyl-5-((2-(trifluoromethyl)benzyl)amino)pyrido[2,3-d]pyrimidin-7(8H)-one]	–
71	Cc1ncnc2c1c(NCc1ccc(C(F)(F)F)cc1)cc(=O)n2O [Example 148, 8-hydroxy-4-methyl-5-((4-(trifluoromethyl)benzyl)amino)pyrido[2,3-d]pyrimidin-7(8H)-one]	–
